The experiment deals with live bacteria. Briefly: Biocide efficiency, fluorescence detection of ATP, percentage kill / viable bacteria. The class given is cell-based. To be noted: for biocidal efficiency in conjunction with biocide 4: 120 ppm corrosion inhibitor + 100 ppm biocide 4 (glutaraldehyde); for biocidal efficiency of the corrosion inhibitor by itself (viable microorganisms): 120 ppm corrosion inhibitor alone. The protocol: Biocidal efficiency of the biocide and biocide in conjunction with corrosion inhibitors were analyzed using fluorescence to indirectly detect the amount of ATP in a given sample. ATP provides a direct correlation to live bacteria (1fg of ATP=1 cell). Through a standard curve, it is the possible to translate the amount of ATP in a given sample to the number of cells/mL in a given sample. Percentage kill was calculated by normalizing the detected bacterial numbers in a biocide or a biocide and corrosion inhibitor treated sample to untreated sample.

With Cocoamphodiproprionate sodium salt, the “biocidal efficiency in conjunction with biocide 4” value is reported as “modest increase in the biocidal properties of biocide 4” and the “biocidal efficiency of the corrosion inhibitor by itself (viable microorganisms)” value was “not efficient in reducing the number of viable microorganisms by itself”.
Taken in the same sequence, the figures for “2-hydroxylethyl-N-methylbutane-1-sulphonamide” were “does not have any biocidal properties” and “does not have any biocidal properties”.

Values taken from US11732143B2, “Identification and characterization of novel corrosion inhibitor molecules” (ECOLAB USA INC., priority 2015, dated 2023).
